For one experiment, the system named is Sprague-Dawley rats. The experiment can be described thus: Hemorrhagic shock-induced vascular hyperpermeability: FITC-albumin flux in mesenteric postcapillary venules by intravital microscopy. It counts as in vivo, rat.
The test system of the next experiment is endothelial cells. As to conditions: traumatized animals, hemorrhagic shock; Childs et al. 2008; cited from earlier work.

The values below come from patent US20100189802A1, “Method for treatment of vascular hyperpermeability” (Scott and White Memorial Hospital and Scott, Sherwood, and …, priority 2007, published 2010).

Description for Sprague-Dawley rats: For example, in an embodiment of the invention disclosed herein, Sprague-Dawley rats were anesthetized with urethane. Hemorrhagic shock was induced in the anesthetized rats by withdrawing blood to reduce the mean arterial pressure to 40 mm Hg for one hour. The rats were then resuscitated to 90 mmHg by administration of the shed blood and normal saline. Albumin labeled with fluorescein isothiocyanate (FITC) was given intravenously during the period in which shock was present. The mesenteric postcapillary venules in a transilluminated segment of small intestine were examined to quantitate changes in albumin flux using intravital microscopy.

On to `O=C(O)CCCCC1CCSS1` (stereo not drawn) [Alpha-lipoic acid, alpha-lipoic acid], for which the “vascular hyperpermeability induced by hemorrhagic shock-induced apoptosis” value in the experiment with Sprague-Dawley rats (alpha-lipoic acid administered to traumatized animals) is reported as “attenuated the amount of vascular hyperpermeability”. The vascular hyperpermeability entry with Sprague-Dawley rats (alpha-lipoic acid, about 100 mg/kg, before the onset of hemorrhagic shock) was “effective in reducing the amount of vascular hyperpermeability”; in the experiment with Sprague-Dawley rats (alpha-lipoic acid, about 100 mg/kg, within 60 minutes after the development of hemorrhagic shock), “effective in reducing the amount of vascular hyperpermeability”.

B1: Angiopoietin-1: an endothelial cell growth factor (protein, UniProt Q15389 16-498, looked up)
Angiopoietin-1: HIGCSNQRRSPENSGRRYNRIQHGQCAYTFILPEHDGNCRESTTDQYNTNALQRDAPHVEPDFSSQKLQHLEHVMENYTQWLQKLENYIVENMKSEMAQIQQNAVQNHTATMLEIGTSLLSQTAEQTRKLTDVETQVLNQTSRLEIQLLENSLSTYKLEKQLLQQTNEILKIHEKNSLLEHKILEMEGKHKEELDTLKEEKENLQGLVTRQTYIIQELEKQLNRATTNNSVLQKQQLELMDTVHNLVNLCTKEGVLLKGGKREEEKPFRDCADVYQAGFNKSGIYTIYINNMPEPKKVFCNMDVNGGGWTVIQHREDGSLDFQRGWKEYKMGFGNPSGEYWLGNEFIFAITSQRQYMLRIELMDWEGNRAYSQYDRFHIGNEKQNYRLYLKGHTGTAGKQSSLILHGADFSTKDADNDNCMCKCALMLTGGWWFDACGPSNLNGMFYTAGQNHGKLNGIKWHYFKGPSYSLRSTTMMIRPLDF
Take B1: in the experiment on Sprague-Dawley rats (angiopoietin-1 intravenously, 200 ng/ml, traumatized animals), the vascular hyperpermeability result is “attenuated the amount of vascular hyperpermeability”. Moreover, the “vascular hyperpermeability and apoptosis” value in the experiment on endothelial cells was “potent inhibitor of vascular hyperpermeability and apoptosis”.
